# Measurements taken from patent US20090317477A1, “COMBINATION OF DEHYDROEPIANDROSTERONE OR DEHYDROEPIANDROSTERONE-SULFATE WITH A GLUCOCORTICOSTEROID FOR TREATMENT OF ASTHMA, CHRONIC OBSTRUCTIVE PULMONARY DISEASE OR ALLERGIC RHINITIS” (priority 2004, published 2009).
# “And” between values parts separate entries of the source, which are not always exact repeats. Equal values may be shown once.
# How the values were obtained:
# [1] = system: LPS-induced secretion of TNFα from PBMC; test: LPS-induced secretion of TNFα from PBMC; type: cell-based, human
# Description: Thereafter, 1 μg/ml LPS was added to induce the cytokine secretion and the mixture was incubated for 24 h at 37° C. For basal control measurements, LPS was omitted from the incubation medium. Following incubation, the samples were centrifuged at 250× g for 5 min at 4° C. and the supernatants were collected.
# The amount of secreted TNF-α present in the supernatant was quantified using an EIA detection kit (R&D systems). The photometric measurements were made with a microplate reader (Ultra, Tecan).
# The results are expressed as a percent inhibition of the control secretion induced by LPS in Table 16.
# [2] = system: Intracellular adenosine; type: in vivo, Fischer 344 rats; settings: rat
# [3] = system: HT-29 SF cells; test: DHEA effect on cell cycle (flow cytometry); type: cell-based, human
# Description: Cells are plated at 10^5/60-mm dish in duplicate. […] Cultures are trypsinized following […] and fixed and stained using a modification of a procedure of Bauer et al., Cancer Res. 46, 3173-3178 (1986). Briefly, cells are collected by centrifugation and resuspended in cold phosphate-buffered saline. Cells are fixed in 70% ethanol, washed, and resuspended in phosphate-buffered saline.
# After 24, 48, and 72 hours, cells are harvested, fixed in ethanol, and stained with propidium iodide, and the DNA content/cell is determined by flow cytometric analysis. The percentage of cells in G1, S, and G2M phases is calculated using the Cellfit cell cycle analysis program. S phase is marked by a quadrangle for clarity. Representative histograms from duplicate determinations are shown. The experiment is repeated three times.
# [4] = system: HT-29 SF cells; test: Reversal of DHEA effect on cell cycle; type: cell-based, human; settings: 25 μM DHEA; increasing exposure time
# [5] = system: HT-29 SF cells; test: DHEA effect on cell growth
# Description: Cell cultures, HT-29 SF cells, which represent a subline of HY-29 cells (ATCC, Rockville, Md.) and are adapted for growth in completely defined serum-free PC-1 medium (Ventrex, Portland, Me.), are obtained. Stock cultures are maintained in this medium at 37° C. (in a humidified atmosphere containing 5% CO2).
# [6] = Solid-state stability at 50° C. with and without lactose (DHEA formed, HPLC); type: physicochemical; settings: dihydrate
# From the text: These conditions are used to stress the formulation in order to predict its long-term stability results. […] The primary degradant is DHEA. […] The materials on accelerated storage become more cohesive with time as evidenced by clumping during sample weighing for chemical analysis. […] This is a considerable disadvantage since lactose is the most commonly used inhalation excipient for dry powder formulations. Continuing with the virtually anhydrous form would mean limiting formulations to neat powder or undertaking more comprehensive safety studies to use a novel excipient.
# [7] = Fine particle fraction, single-dose Acu-Breathe device into Andersen impactor; type: physicochemical; settings: aerosol of dihydrate/lactose blend; Test 2; 60 L/min
# Description: The single-dose Acu-Breathe device is used for evaluating DHEA-S-dihydrate. Approximately 10 mg of neat DHEA-S-dihydrate powder is filled and sealed into foil blisters. These blisters are actuated into the Andersen 8-stage cascade impactor at flow rates ranging from 30 to 75 L/min with a glass twin-impinger throat. Stages 1-5 of the Andersen impactor are rinsed together to obtain an estimate of the fine particle fraction. Pooling the drug collected from multiple stages into one assay make the method much more sensitive. […] This unique feature of DHEA-S-dihydrate has not been reported in any previous literature. […] Using a carrier with a larger particle size typically improves the aerosol properties of micronized drug substances.
# Approximately 25 mg of this powder is filled and sealed in foil blisters and aerosolized using the single-dose device at 60 L/min. The aerosol results for this preliminary powder blend are satisfactory for a respiratory drug delivery system. […] This diameter is smaller than the median diameter measured for micronized DHEA-S-dihydrate by laser diffraction. Irregularly shaped particles can behave aerodynamically as smaller particles since their longest dimension tends to align with the air flow field. Therefore, it is common to see a difference between the two methods. […]
# [8] = Solubility of DHEA-S; type: physicochemical; settings: 20 mM Na^+; Ksp of 1316 mM^2 (15° C.)
# From the text: Inhalation of pure water can produce a cough stimulus. […] The temperature effect is weaker at high NaCl concentrations.
# [9] = Nebulizer studies (Pari ProNeb Ultra, LC Plus); type: physicochemical; settings: 0.12% NaCl
# Description: The nebulizer is filled with 5 mL of solution and nebulization is continued until the output became visually insignificant (4½ to 5 min.). Nebulizer solutions are tested using a California Instruments AS-6 6-stage impactor with a USP throat. The impactor is run at 30 L/min for 8 s to collect a sample following one minute of nebulization time. At all other times during the experiment, the aerosol is drawn through the by-pass collector at approximately 33 L/min. The collection apparatus, nebulizer, and impactor are rinsed with mobile phase and assayed by HPLC. […] This volume is selected as the practical upper limit for use in a clinical study.
# [10] = biological target: T1, Glucocorticoid receptor (Homo sapiens, UniProt P04150); test: Radioligand binding assay, Glucocorticoid; settings: 100 μM
# T1 sequence (P04150 1-777): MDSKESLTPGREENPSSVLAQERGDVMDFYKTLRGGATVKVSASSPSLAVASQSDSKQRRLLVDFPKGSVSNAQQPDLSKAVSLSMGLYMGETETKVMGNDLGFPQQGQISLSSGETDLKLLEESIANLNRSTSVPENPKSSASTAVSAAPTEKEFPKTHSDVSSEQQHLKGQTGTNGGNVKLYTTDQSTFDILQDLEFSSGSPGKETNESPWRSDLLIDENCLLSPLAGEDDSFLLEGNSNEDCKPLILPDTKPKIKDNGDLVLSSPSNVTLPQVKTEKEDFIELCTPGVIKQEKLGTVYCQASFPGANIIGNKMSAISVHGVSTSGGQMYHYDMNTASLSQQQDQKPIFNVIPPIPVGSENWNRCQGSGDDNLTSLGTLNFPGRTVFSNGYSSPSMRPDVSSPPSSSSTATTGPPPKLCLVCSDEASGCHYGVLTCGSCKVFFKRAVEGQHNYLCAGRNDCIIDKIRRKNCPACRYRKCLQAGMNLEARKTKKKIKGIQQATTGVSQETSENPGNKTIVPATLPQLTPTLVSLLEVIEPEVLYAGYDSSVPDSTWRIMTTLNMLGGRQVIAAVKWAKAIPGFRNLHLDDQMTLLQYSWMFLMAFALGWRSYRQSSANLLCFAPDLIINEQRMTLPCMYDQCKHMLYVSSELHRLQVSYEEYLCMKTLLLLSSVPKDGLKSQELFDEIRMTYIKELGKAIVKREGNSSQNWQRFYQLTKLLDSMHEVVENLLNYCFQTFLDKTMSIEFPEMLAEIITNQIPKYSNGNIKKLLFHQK
# [11] = system: Glucocorticoid, Testosterone, Estrogen ERα, Estrogen ERβ, Progesterone, Vitamin D3 receptors; test: Radioligand binding assays, steroid receptor panel (statements in words)
# [12] = Homo sapiens, PBMC, read-out: percent inhibition of LPS-induced TNFα secretion
structure (smiles),measurement,setting,value
C[C@@H]1C[C@H]2[C@@H]3CCC4=CC(=O)C=C[C@]4(C)[C@@]3(F)[C@@H](O)C[C@]2(C)[C@@]1(O)C(=O)CO [Dexamethasone],inhibition at 0.001 µM,[1]; [12],-3%
same,inhibition at 0.01 µM,[1]; [12],4%
same,inhibition at 0.1 µM,[1]; [12],36%
"C[C@]12CC[C@H](O)CC1=CC[C@@H]1[C@@H]2CC[C@]2(C)C(=O)CC[C@@H]12 [DHEA, 3β-hydroxyandrost-5-en-17-one]",effect on adenosine across organs,[2]; daily for two weeks,multi-organ depletion of adenosine
same,cell cycle distribution,[3]; 200 μM DHEA,more rapid increase in the percentage of cells in G1 and a decreased proportion of cells in S phase after 24 hours
same,cell cycle effect,"[3]; 25, 50, 200 μM, 24-72 hours",G1 block in HT-29 SF cells in a time-and dose-dependent manner
same,effect on proportion of cells in S phase,[4],progressively reduced the proportion of cells in S phase
same,exposure time after which cell number is reduced compared to controls,[5]; 12.5 μM DHEA,72 h
same,exposure time after which cell number is reduced compared to controls,[5]; 25 μM DHEA,48 h
same,exposure time after which cell number is reduced compared to controls,[5]; 50 μM DHEA,48 h
same,exposure time after which cell number is reduced compared to controls,[5]; 200 μM DHEA,24 h
same,inhibition of growth,"[5]; 12.5-200 μM, 24-72 hours",time- and dose-dependent inhibition of growth
CC12CCC3C(CC=C4CC(OS(=O)(=O)[O-])CCC43C)C1CCC2=O.[Na+] (centres unmarked) [DHEA-S dihydrate],Percent DHEA formed,"[6]; 50° C., 1 week",0.216%
same,Percent DHEA formed,"[6]; 50° C., 3 weeks",0.317%
same,Percent DHEA formed,"[6]; 50° C., 4 weeks",0.374%
same,Percent DHEA formed,"[6]; Control, sealed, 25° C., 4 weeks",0.218%
same,Percent DHEA formed,"[6]; Control, sealed, 25° C., first column (Time=0)",0.213%
"C[C@]12CC[C@H](OS(=O)(=O)[O-])CC1=CC[C@@H]1[C@@H]2CC[C@]2(C)C(=O)CC[C@@H]12.[Na+] [DHEA-S, sodium dehydroepiandrostenone sulfate]",median diameter of aerosol by cascade impaction,[7],~2.5 μm
same,calculated solubility of DHEA-S^−,[8],27.5 mM and 10.7 mg/mL
same,highest solution concentration for a clinical trial formulation (no precipitate during nebulization),[9],approximately 7.5 mg/mL
same,percent inhibition of LPS-induced TNFα secretion,[1]; DHEAS 30 μM alone,−2%
same,percent inhibition of LPS-induced TNFα secretion,[1]; DHEAS 100 μM alone,32%
same,binding to the glucocorticosteroid receptor,[10],does not bind to the glucocorticosteroid receptor
same,binding to the steroid receptors,[11],lack of effect on ligand binding on the other four receptors
Nc1nc(=O)c2c([nH]1)NCC(CNc1ccc(C(=O)N[C@@H](CCC(=O)O)C(=O)O)cc1)N2C=O (mixture of isomers) [Folinic Acid],"Intracellular adenosine, Brain",[2]; in vivo,0.72 ± 0.09
same,effect of coadministration of folinic acid on steroid-mediated adenosine depletion,[2]; with DHEA or methyltestosterone,completely abrogate steroid-mediated adenosine depletion
